The record followed here is US20240376099A1, “COMPOUNDS AND COMPOSITIONS AS INHIBITORS OF ENDOSOMAL TOLL-LIKE RECEPTORS” (Novartis AG, priority 2016, published 2024).

For orientation: IC50 means the midpoint of a concentration-inhibition curve.

The assay has as its target T1, TLR9 (Homo sapiens, UniProt Q9NR96).
T1 construct: Fresh blood was collected from normal human donors; endogenous in cells; host or cells: human PBMCs from fresh donor blood
T1 sequence (Q9NR96 26-1032): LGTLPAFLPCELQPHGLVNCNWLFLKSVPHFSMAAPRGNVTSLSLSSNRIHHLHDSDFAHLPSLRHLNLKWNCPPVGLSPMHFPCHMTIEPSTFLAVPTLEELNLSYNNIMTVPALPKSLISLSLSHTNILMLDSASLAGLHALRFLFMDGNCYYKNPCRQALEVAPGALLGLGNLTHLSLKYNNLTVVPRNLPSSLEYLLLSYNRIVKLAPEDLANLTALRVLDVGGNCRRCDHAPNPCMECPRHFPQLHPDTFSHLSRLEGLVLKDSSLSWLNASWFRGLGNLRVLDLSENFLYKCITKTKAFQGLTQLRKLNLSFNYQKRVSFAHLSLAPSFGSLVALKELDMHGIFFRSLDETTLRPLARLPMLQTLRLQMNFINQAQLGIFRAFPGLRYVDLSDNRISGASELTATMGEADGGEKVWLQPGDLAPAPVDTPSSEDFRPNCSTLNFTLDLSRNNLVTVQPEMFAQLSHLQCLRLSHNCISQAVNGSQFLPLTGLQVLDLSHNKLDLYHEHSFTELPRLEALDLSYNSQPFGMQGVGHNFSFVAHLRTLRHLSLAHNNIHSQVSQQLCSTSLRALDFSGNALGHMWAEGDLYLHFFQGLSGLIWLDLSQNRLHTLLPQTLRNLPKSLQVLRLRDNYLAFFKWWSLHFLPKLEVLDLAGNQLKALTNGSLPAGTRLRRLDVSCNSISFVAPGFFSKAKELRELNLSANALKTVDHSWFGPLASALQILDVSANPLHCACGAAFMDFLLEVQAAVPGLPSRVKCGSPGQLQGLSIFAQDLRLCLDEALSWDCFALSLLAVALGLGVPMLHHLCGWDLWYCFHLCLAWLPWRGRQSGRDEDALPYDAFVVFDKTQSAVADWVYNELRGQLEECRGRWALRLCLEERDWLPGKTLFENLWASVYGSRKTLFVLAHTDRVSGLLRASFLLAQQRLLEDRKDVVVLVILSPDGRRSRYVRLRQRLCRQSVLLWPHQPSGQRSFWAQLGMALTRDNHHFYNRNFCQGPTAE
As to the kind of experiment: huPBMC TLR9 Antagonist IFNα Assay. It is filed as cell-based. The note with it: human PBMCs stimulated with ODN2216 0.3 μM, 14-16 hrs; IFNα2b AlphaLISA read-out. The procedure, abridged: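 Human PBMCs from fresh donor blood (150,000 cells/well) stimulated 14–16 h at 37 °C with DOTAP-complexed ssRNA40 (final 1 μg/ml for TLR8, 10 μg/mL for TLR7) or ODN2216 (final 0.3 μM, TLR9), 0.25% DMSO, ten-point 1/3 compound dilutions. Supernatant IL-6 read by HTRF (TLR8); IFNα by IFNα2b AlphaLISA (TLR7/TLR9).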
In general terms: Bead proximity is the source of the signal in Alpha formats.
On to `Cc1cc(N2CCc3c(c(C)nn3CC34CCC(NC(=O)CCN)(CC3)CC4)C2)c2cnn(C)c2n1` [compound 115, 3-amino-N-(4-((5-(1,6-dimethyl-1H-pyrazolo[3,4-b]pyridin-4-yl)-3-methyl-4,5,6,7-tetrahydro-1H-pyrazolo[4,3-c]pyridin-1-yl)methyl)bicyclo[2.2.2]octan-1-yl)propanamide], for which the IC50 is above 10000 nM.

In the case of `Cc1cc(N2CCc3c(c(C)nn3CC34CCC(N5CC6(COC6)C5)(CC3)CC4)C2)c2cnn(C)c2n1` [compound 116, 6-(4-((5-(1,6-dimethyl-1H-pyrazolo[3,4-b]pyridin-4-yl)-3-methyl-4,5,6,7-tetrahydro-1H-pyrazolo[4,3-c]pyridin-1-yl)methyl)bicyclo[2.2.2]octan-1-yl)-2-oxa-6-azaspiro[3.3]heptane], the IC50 is 1570 nM.

For `CN[C@H](C)C(=O)NC12CCC(Cn3nc(C)c4c3CCN(c3cc(C)nc5c3cnn5C)C4)(CC1)CC2` [compound 117, (R)-N-(4-((5-(1,6-dimethyl-1H-pyrazolo[3,4-b]pyridin-4-yl)-3-methyl-4,5,6,7-tetrahydro-1H-pyrazolo[4,3-c]pyridin-1-yl)methyl)bicyclo[2.2.2]octan-1-yl)-2-(methylamino)propanamide], the IC50 is 954 nM.

Turning to `CN[C@@H](C)C(=O)NC12CCC(Cn3nc(C)c4c3CCN(c3cc(C)nc5c3cnn5C)C4)(CC1)CC2` [compound 118], the IC50 worked out at 775 nM.

With `CNCC(=O)NC12CCC(Cn3nc(C)c4c3CCN(c3cc(C)nc5c3cnn5C)C4)(CC1)CC2` [compound 121, N-(4-((5-(1,6-dimethyl-1H-pyrazolo[3,4-b]pyridin-4-yl)-3-methyl-4,5,6,7-tetrahydro-1H-pyrazolo[4,3-c]pyridin-1-yl)methyl)bicyclo[2.2.2]octan-1-yl)-2-(methylamino)acetamide], the IC50 turned out to be 1440 nM.

With `Cc1cc(N2CCc3c(c(C)nn3CC34CCC(NCC(C)(C)O)(CC3)CC4)C2)c2cnn(C)c2n1` [compound 123, 1-((4-((5-(1,6-dimethyl-1H-pyrazolo[3,4-b]pyridin-4-yl)-3-methyl-4,5,6,7-tetrahydro-1H-pyrazolo[4,3-c]pyridin-1-yl)methyl)bicyclo[2.2.2]octan-1-yl)amino)-2-methylpropan-2-ol], the IC50 worked out at 2230 nM.

For `CCNCC(=O)NC12CCC(Cn3nc(C)c4c3CCN(c3cc(C)nc5cn[nH]c35)C4)(CC1)CC2` [compound 124, 2-(ethylamino)-N-(4-((3-methyl-5-(5-methyl-1H-pyrazolo[4,3-b]pyridin-7-yl)-4,5,6,7-tetrahydro-1H-pyrazolo[4,3-c]pyridin-1-yl)methyl)bicyclo[2.2.2]octan-1-yl)acetamide], the IC50 was above 10000 nM.

With `Cc1cc(N2CCc3c(c(C)nn3CC34CCC(NC(=O)C5CNCCO5)(CC3)CC4)C2)c2cnn(C)c2n1` (centres unmarked) [compound 125, N-(4-((5-(1,6-dimethyl-1H-pyrazolo[3,4-b]pyridin-4-yl)-3-methyl-4,5,6,7-tetrahydro-1H-pyrazolo[4,3-c]pyridin-1-yl)methyl)bicyclo[2.2.2]octan-1-yl)morpholine-2-carboxamide], the IC50 is 909 nM.

`CCNCCC(=O)NC12CCC(Cn3nc(C)c4c3CCN(c3cc(C)nc5c3cnn5C)C4)(CC1)CC2` [compound 126, N-(4-((5-(1,6-dimethyl-1H-pyrazolo[3,4-b]pyridin-4-yl)-3-methyl-4,5,6,7-tetrahydro-1H-pyrazolo[4,3-c]pyridin-1-yl)methyl)bicyclo[2.2.2]octan-1-yl)-3-(ethylamino)propanamide]: the IC50 was 9530 nM.

As to `CCNC12CCC(Cn3nc(C)c4c3CCN(c3ccnc(-c5ccccc5)c3)C4)(CC1)CC2` [compound 127, N-ethyl-4-((3-methyl-5-(2-phenylpyridin-4-yl)-4,5,6,7-tetrahydro-1H-pyrazolo[4,3-c]pyridin-1-yl)methyl)bicyclo[2.2.2]octan-1-amine], the IC50 is 545 nM.

In the case of `Cc1cc(N2CCc3c(c(C)nn3CC34CCC(N5CCOC[C@@H]5C)(CC3)CC4)C2)c2cnn(C)c2n1` [compound 128, (S)-4-(4-((5-(1,6-dimethyl-1H-pyrazolo[3,4-b]pyridin-4-yl)-3-methyl-4,5,6,7-tetrahydro-1H-pyrazolo[4,3-c]pyridin-1-yl)methyl)bicyclo[2.2.2]octan-1-yl)-3-methylmorpholine], the IC50 is 792 nM.

For `Cc1cc(N2CCc3c(c(C)nn3CC34CCC(N5CCOC[C@H]5C)(CC3)CC4)C2)c2cnn(C)c2n1` [compound 129, (R)-4-(4-((5-(1,6-dimethyl-1H-pyrazolo[3,4-b]pyridin-4-yl)-3-methyl-4,5,6,7-tetrahydro-1H-pyrazolo[4,3-c]pyridin-1-yl)methyl)bicyclo[2.2.2]octan-1-yl)-3-methylmorpholine], the IC50 stood at 1050 nM.

Consider `COCCNC12CCC(Cn3nc(C)c4c3CCN(c3ccnc(-c5ccccc5)c3)C4)(CC1)CC2` [compound 130, N-(2-methoxyethyl)-4-((3-methyl-5-(2-phenylpyridin-4-yl)-4,5,6,7-tetrahydro-1H-pyrazolo[4,3-c]pyridin-1-yl)methyl)bicyclo[2.2.2]octan-1-amine], for which the IC50 was found to be 672 nM.

As to `Cc1cc(N2CCc3c(c(C)nn3CC34CCC(NC(=O)C5CNC5)(CC3)CC4)C2)c2cnn(C)c2n1` [compound 131, N-(4-((5-(1,6-dimethyl-1H-pyrazolo[3,4-b]pyridin-4-yl)-3-methyl-4,5,6,7-tetrahydro-1H-pyrazolo[4,3-c]pyridin-1-yl)methyl)bicyclo[2.2.2]octan-1-yl)azetidine-3-carboxamide], the IC50 was above 10000 nM.

Regarding `CCN(C)CC(=O)NC12CCC(Cn3nc(C)c4c3CCN(c3cc(C)nc5c3cnn5C)C4)(CC1)CC2` [compound 132, N-(4-((5-(1,6-dimethyl-1H-pyrazolo[3,4-b]pyridin-4-yl)-3-methyl-4,5,6,7-tetrahydro-1H-pyrazolo[4,3-c]pyridin-1-yl)methyl)bicyclo[2.2.2]octan-1-yl)-2-(ethyl(methyl)amino)acetamide], the IC50 was found to be 260 nM.

Turning to `[2H]C([2H])([2H])N(CC(=O)NC12CCC(Cn3nc(C)c4c3CCN(c3cc(C)nc5c3cnn5C)C4)(CC1)CC2)C([2H])([2H])[2H]` [compound 134, 2-(bis(trideuteromethyl)amino)-N-(4-((5-(1,6-dimethyl-1H-pyrazolo[3,4-b]pyridin-4-yl)-3-methyl-4,5,6,7-tetrahydro-1H-pyrazolo[4,3-c]pyridin-1-yl)methyl)bicyclo[2.2.2]octan-1-yl)acetamide], the IC50 stood at 299 nM.

Consider `Cc1cc(N2CCc3c(c(C)nn3CC34CCC(NCC5(CO)COC5)(CC3)CC4)C2)c2cnn(C)c2n1` [compound 137, (3-(((4-((5-(1,6-dimethyl-1H-pyrazolo[3,4-b]pyridin-4-yl)-3-methyl-4,5,6,7-tetrahydro-1H-pyrazolo[4,3-c]pyridin-1-yl)methyl)bicyclo[2.2.2]octan-1-yl)amino)methyl)oxetan-3-yl)methanol], for which the IC50 came out at 1280 nM.

Turning to `CCn1ncc2c(N3CCc4c(c(C)nn4CC45CCC(NC(=O)[C@@H]6COCCN6)(CC4)CC5)C3)cc(C)nc21` [compound 141, (S)-N-(4-((5-(1-ethyl-6-methyl-1H-pyrazolo[3,4-b]pyridin-4-yl)-3-methyl-4,5,6,7-tetrahydro-1H-pyrazolo[4,3-c]pyridin-1-yl)methyl)bicyclo[2.2.2]octan-1-yl)morpholine-3-carboxamide], the IC50 was determined as 5170 nM.

Regarding `CNCCC(=O)NC12CCC(Cn3nc(C)c4c3CCN(c3cc(C)nc5c3cnn5C)C4)(CC1)CC2` [compound 142, N-(4-((5-(1,6-dimethyl-1H-pyrazolo[3,4-b]pyridin-4-yl)-3-methyl-4,5,6,7-tetrahydro-1H-pyrazolo[4,3-c]pyridin-1-yl)methyl)bicyclo[2.2.2]octan-1-yl)-3-(methylamino)propanamide], the IC50 is above 6590 nM.

As for `Cc1cc(N2CCc3c(c(C)nn3CC34CCC(NC5CCC5)(CC3)CO4)C2)c2cnn(C)c2n1` [compound 143, N-cyclobutyl-1-((5-(1,6-dimethyl-1H-pyrazolo[3,4-b]pyridin-4-yl)-3-methyl-4,5,6,7-tetrahydro-1H-pyrazolo[4,3-c]pyridin-1-yl)methyl)-2-oxabicyclo[2.2.2]octan-4-amine], the IC50 was 841 nM.
